In patent US20210244700A1, “COMPOSITIONS AND METHODS FOR PREVENTING AND/OR REDUCING ISCHEMIA AFTER SURGICAL INCISIONS” (Duke University, priority 2018, published 2021):
Entries after “also recorded” stand apart in the source; their conditions may differ.

Tests used:
[1] = cited from earlier work
VEGF = assay: Tissue VEGF concentration by enzyme-linked immunosorbent assay; assay type: in vivo, rat; conditions: skin flap 6 cm from the proximal flap, postoperative day 7; control 22.0±1.7 pg/ml; p=0.007
Procedure: Tissue samples were harvested on postoperative day 7 and dissected on ice, submerged in liquid nitrogen, then stored at −80° C. Tissue samples from tissue sections taken at the same distance 6 cm from the proximal flap were then homogenized in lysis buffer containing 100 mM Tris hydrochloride (pH 7.4), 150 mmol sodium chloride, 1% Triton X-100, 0.5% sodium deoxycholate, and 1 μg/ml protease inhibitor cocktail (Sigma Aldrich, St. Louis, Mo.). The samples were centrifuged to pellet the debris, and the supernatants were analyzed following the manufacturer's protocol for a rat tissue extract VEGF enzyme-linked immunosorbent assay kit (Sigma-Aldrich).

ischemic skin flap [2] = assay: Skin flap necrosis, rat ischemic dorsal pedicle skin flap (McFarlane) model; assay type: in vivo; conditions: for mean percentage of skin flap necrosis: postoperative day 3; for mean percentage of skin flap necrosis / flap necrosis: intraperitoneal + topical; for mean percentage of skin flap necrosis / postsurgical flap necrosis percentage: control 41.3±3.8 percent; for flap necrosis: postoperative day 7; for flap necrosis / percentage of flap necrosis: control 50.9±3.9 percent; for postsurgical flap necrosis percentage: postsurgical day 3; for percentage of flap necrosis: postsurgical day 7
Procedure: (§1) After institutional animal care and use committee approval, hairless male rats (8 weeks old; 250 g) were obtained from Charles River Laboratories (Wilmington, Mass.). Six experimental groups of rats (n=24) and three control groups (n=12) underwent skin flap surgery by surgeons blinded to the experimental treatment arm. First, to assess both systemic and topical administration together, four experimental groups (n=16) were administered dimethyloxalylglycine (Cayman Chemical, Ann Arbor, Mich.) both intraperitoneally and topically for a total dose of 6 mg/kg/day (n=4), 12 mg/kg/day (n=4), 24 mg/kg/day (n=4), or 48 mg/kg/day (n=4). Next, to assess topical versus intraperitoneal administration, two experimental groups were administered dimethyloxalylglycine at 48 mg/kg/day either topically (n=4) or intraperitoneally (n=4). Intraperitoneal administration consisted of dimethyloxalylglycine suspension in phosphate-buffered saline (pH 7.4) to a maximum dosage of 10 ml/kg. Topical delivery consisted of administration of dimethyloxalylglycine using dimethylsulfoxide as a delivery vehicle at a maximum dosage of 9 ml/kg undiluted solution. Topical application was performed in the outline of the proposed skin flap. To replicate a short therapeutic course before and after flap surgery, the study was designed to include a 14-day treatment period, with dimethyloxalylglycine administered 7 days before and 7 days after flap surgery (FIG. 1). Because prolyl hydroxylase inhibitors target the HIF pathway […], this design was chosen to allow time for downstream neovascularization.
(§2) Throughout the same 14-day treatment course, control groups were administered an equal volume of intraperitoneal phosphate-buffered saline (pH 7.4) and topical dimethylsulfoxide. A dorsal pedicle skin flap based on the McFarlane model measuring 3×6 cm was elevated in the areolar tissue plane deep to the panniculus carnosus layer on each rat on treatment day 7. Consistency in flap design was ensured using a model outline for size and shape and positioning according to bony landmarks. After flap elevation, the flap was sutured in place with 4-0 polypropylene. Surgeons were blinded intraoperatively to treatment arm with a random numbers scheme. Seven days after surgery, the animals were euthanized and histologic analysis performed in postmortem tissue specimens.
(§3) Photographic measurements of necrosis were taken on postoperative days 1, 3, and 7. Flap necrosis was determined grossly by the presence of cyanosis and congestion on postoperative day 1 (FIG. 2) and the presence of scab formation and loss of skin elasticity on subsequent postsurgical days. At 7 days, tissue perfusion was assessed by means of intraperitoneal injection of 1 ml of sodium fluorescein 10% at 60 mg/kg and fluorescent imaging with an in vivo imaging system (IVIS Kinetic; PerkinElmer, Waltham, Mass.) using LIVING IMAGE® software with a 465-nm excitation and green fluorescent protein emission filter. Necrotic area was calculated using ImageJ Software (National Institutes of Health, Bethesda, Md.). Digital photographs and IVIS images were evaluated and analyzed by an investigator blinded to the assigned treatment group.

ischemic skin flap [3] = assay: Skin flap tissue perfusion, sodium fluorescein injection and IVIS imaging; assay type: in vivo, rat; conditions: postoperative day 7; for percentage of unperfused tissue: intraperitoneal + topical, control 39.9±3.8 percent; for percentage of unperfused tissue / percentage of overall flap perfusion: p<0.001; for percentage of overall flap perfusion: control 31.4±2.3 percent
Procedure: as §1, §2, §3

apoptotic cells = assay: Apoptosis by terminal deoxynucleotidyl transferase-mediated dUDP end-labeling staining of skin flap; assay type: in vivo, rat; conditions: 20× magnification, 4 cm from the proximal flap; control 15.1±6.2; p=0.045
Procedure: (§4) Tissues from the proximal and distal parts of the flaps were collected on postoperative day 7 and were fixed in 10% paraformaldehyde and embedded in paraffin, with representative sections depicted in FIG. 1. For histologic evaluation and CD31 immunohistochemical staining, sections taken 6 cm from the proximal flap were deparaffinized in xylene and rehydrated in a series of ethanol washes. For detection of CD31+ cells, sections were incubated with anti-mouse CD31 antibody (BD Pharmingen, San Jose, Calif.) at a dilution of 1:200 at 4° C. overnight. For analysis of angiogenesis, the CD31+ vessels in five fields were counted by light microscopy (20×) for each group. A TdT In Situ Cell Death Detection Kit (R&D Systems, Minneapolis, Minn.) was used to compare apoptotic protein expression in sections taken 4 cm from the proximal flap. The ratio of terminal deoxynucleotidyl transferase-mediated dUDP end-labeling-positive cells was calculated according to the manufacturer's protocol. Terminal deoxynucleotidyl transferase-mediated dUDP end-labeling-positive cells were also counted by light microscopy (20×) in 10 fields.

[4] = Complete blood counts after 14 total days of treatment; assay type: in vivo, rat
Procedure: (§5) The animals were treated according to institutional animal care and use committee guidelines. Animals were double-housed for the preoperative period, then single-housed in the immediate postoperative period to protect flap integrity. Isoflurane anesthesia was used for all operations and daily intraperitoneal injections. Elizabethan collars were placed on rats to prevent ingestion of the topical solution after application. No dressing was used over the topical application site due to absorption. Animals were observed daily for side effects, including wound infections or dehiscence. Weights were taken on the day of surgery and on postoperative day 7. Blood samples were obtained on postoperative day 7 immediately before the animals were euthanized by means of cardiac puncture to determine hemoglobin, hematocrit, white blood cell count, and platelet count. Animals were euthanized by means of intracardiac potassium chloride on postoperative day 7, and gross necropsies were performed by a veterinarian to assess macroscopic organ changes after 14 total days of treatment.

[5] = Side effect monitoring, weights and gross necropsy; assay type: in vivo, rat
Procedure: as §5

HIF-1α = HIF-1α immunohistochemistry of skin flap epidermis; assay type: in vivo, rat; conditions: 4 cm from the proximal flap, postoperative day 7, control 3.5±0.6, p<0.001
Procedure: For analysis of HIF-1α, sections were taken 4 cm from the proximal flap and incubated with anti-rabbit HIF-1α antibody (Novus Biologicals, Littleton, Colo.) at a dilution of 1:1600. A Discovery Ultra immunohistochemical system (Ventana Medical Systems, Oro Valley, Ariz.) was used for staining with OmniMap anti-Rb horseradish peroxidase and red chromogen was used for detection. HIF-1α-positive nuclei in the epidermis were counted by light microscopy (20×) in five fields. All immunohistochemical measurements were performed by a blinded investigator.

CD31+ vessels = assay: Neovascularization: CD31 immunohistochemistry and hematoxylin and eosin histology of skin flap; assay type: in vivo, rat
Procedure: as §4

In the case of O=c1c(-n2ccnn2)c[nH]n1-c1cc(N2CCOCC2)ncn1 [Molidastat], the “most common adverse effect in clinical trials” value [1] is given as “hypertension resulting from polycythemia”.
For O=C(O)CNC(=O)c1ncc(-c2cccc(Cl)c2)cc1O [Vadadustat], the “most common adverse effect in clinical trials” value [1] is listed as “hypertension resulting from polycythemia”.
With COC(=O)CNC(=O)C(=O)OC [dimethyloxalylglycine] the “tissue VEGF concentration” value (VEGF) was 37.1 ± 3.4 pg/mL, the cyanosis of flaps (ischemic skin flap [2]; postoperative day 1, treated versus control flaps (FIG. 2: 24 mg/kg/day intraperitoneal and topical)) was “Decreased cyanosis” and the “mean percentage of skin flap necrosis” value (ischemic skin flap [2]; total 6 mg/kg/day, p=0.13) was 30.2±3.9%. The “mean percentage of skin flap necrosis” value (ischemic skin flap [2]; total 12 mg/kg/day, p=0.001) was 12.3±4.5%, the “mean percentage of skin flap necrosis” value (ischemic skin flap [2]; total 24 mg/kg/day, p=0.008) was 20.3±1.8% and the “mean percentage of skin flap necrosis” value (ischemic skin flap [2]; total 48 mg/kg/day, p<0.001) was 7.7±3.1%. The flap necrosis (ischemic skin flap [2]; total 6 mg/kg/day, p=0.004) was 26.7±1.3%, the flap necrosis (ischemic skin flap [2]; total 12 mg/kg/day, p=0.002) was 20.6±7.0% and the flap necrosis (ischemic skin flap [2]; total 24 mg/kg/day, p=0.003) was 25.0±2.5%. For the same compound, the flap necrosis (ischemic skin flap [2]; total 48 mg/kg/day, p<0.001) was 11.6±4.4%, the “postsurgical flap necrosis percentage” value (ischemic skin flap [2]; intraperitoneal alone 48 mg/kg/day, p=0.002) was 14.7±2.6% and the “postsurgical flap necrosis percentage” value (ischemic skin flap [2]; topical alone 48 mg/kg/day, p=0.005) was 18.9±2.8%. The “percentage of flap necrosis” value (ischemic skin flap [2]; intraperitoneal alone 48 mg/kg/day, p<0.001) was 16.3±5.2%, the “percentage of flap necrosis” value (ischemic skin flap [2]; topical alone 48 mg/kg/day, p=0.003) was 25.7±2.3% and the “increase in flap viability” value (ischemic skin flap [2]; topical application and intraperitoneal administration) was “nearly threefold increase”. For the same compound, the “dose dependence of tissue perfusion” value (ischemic skin flap [3]; 6 to 48 mg/kg/day) was “higher dimethyloxalylglycine doses leading to increased tissue perfusion”, the “percentage of unperfused tissue” value (ischemic skin flap [3]; total 6 mg/kg/day) was 11.4±1.7% and the “percentage of unperfused tissue” value (ischemic skin flap [3]; total 12 mg/kg/day) was 9.4±4.2%. For the same compound, the “percentage of unperfused tissue” value (ischemic skin flap [3]; total 24 mg/kg/day) was 4.7±2.6%, the “percentage of unperfused tissue” value (ischemic skin flap [3]; total 48 mg/kg/day) was 1.4±0.9% and the “percentage of overall flap perfusion” value (ischemic skin flap [3]; intraperitoneal alone 48 mg/kg/day) was 7.2±3.8%. The “percentage of overall flap perfusion” value (ischemic skin flap [3]; topical alone 48 mg/kg/day) was 6.9±1.3%, the “number of apoptotic cells per high-power field” value (apoptotic cells) was 1.7±0.6 and the mean hemoglobin ([4]; control 15.1±0.5 g/dl, p=0.3) was 14.2 ± 1.0 g/dL. For the same compound, the “mean white blood cell count” value ([4]; control 18.2±5.6×10^3/p1, p=0.08) was 10.4±1.6 ×10^3/p1, the hematocrit ([4]; control 43.3±1.1 percent, p=0.2) was 40.8±2.6% and the platelet count ([4]; control 1446±218×10^9/liter, p=0.8) was 1510±247 ×10^9/liter. For the same compound, the gross necropsy findings ([5]; after 14 total days of treatment) was “no evidence of cardiovascular changes, splenomegaly, or polycythemia; also recorded: no macroscopic organ changes were observed”, the “weights versus control animals” value ([5]; experimental day 1 or day 14, all doses) was “no differences” and the “wound infections, dehiscence, behavioral changes in feeding or activity” value ([5]; rat, in vivo) was “No wound infections, dehiscence, or behavioral changes in feeding or activity were observed”. The “number of HIF-1α-stained nuclei per high-power field” value (HIF-1α) was 21.0±2.7, the “number of CD31-labeled vessels” value (CD31+ vessels; per high-power field at 20×, 6 cm from the proximal flap, after 14 total days of treatment, control 8.8±1.2, p=0.004) was 18.8±2.2 and the “neovascularization on hematoxylin and eosin-stained tissue” value (CD31+ vessels; skin flap after 14 total days of treatment, versus controls) was “greater neovascularization”.
